Values after ≈ are worked out from the molar mass of the structure shown. Where two headings read alike, the source gives them in different places. Each block holds one compound with its values, some of them ahead of it.
Key:
[1] = Plasma pharmacokinetics in healthy male and female volunteers following oral administration of a capsule formulated dose; assay type: in vivo; details: both sexes, human, capsule with Cremephor RH40
Protocol: Plasma pharmacokinetics for 1-[3-(4-bromo-2-methyl-2H-pyrazol-3-yl)-4-methoxy-phenyl]-3-(2,4-difluoro-phenyl)-urea were determined in healthy male and female volunteers following oral administration of a capsule formulated dose of 1-[3-(4-bromo-2-methyl-2H-pyrazol-3-yl)-4-methoxy-phenyl]-3-(2,4-difluoro-phenyl)-urea and Cremephor RH40.

[2] = molecular target: 5-HT2A serotonin receptor (Homo sapiens, UniProt P28223); details: cited from earlier work
Sequence of 5-HT2A serotonin receptor (P28223 whole entry): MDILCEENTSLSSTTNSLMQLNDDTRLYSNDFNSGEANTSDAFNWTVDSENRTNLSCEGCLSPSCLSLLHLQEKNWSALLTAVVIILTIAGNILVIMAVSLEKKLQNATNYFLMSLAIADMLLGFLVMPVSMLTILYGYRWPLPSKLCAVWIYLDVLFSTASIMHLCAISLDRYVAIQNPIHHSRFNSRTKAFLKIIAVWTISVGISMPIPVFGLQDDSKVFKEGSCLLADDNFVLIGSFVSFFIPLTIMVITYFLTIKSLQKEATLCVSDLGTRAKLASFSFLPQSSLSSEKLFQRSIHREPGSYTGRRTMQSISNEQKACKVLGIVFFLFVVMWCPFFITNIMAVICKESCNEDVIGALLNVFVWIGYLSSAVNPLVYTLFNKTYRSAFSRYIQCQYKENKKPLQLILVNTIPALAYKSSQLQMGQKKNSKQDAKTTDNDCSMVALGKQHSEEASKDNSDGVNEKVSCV

[3] = Solubility determination in selected excipients (HPLC); assay type: physicochemical; details: thermodynamic from solid
Protocol: The vial contents were mixed for 30 seconds using a VWR mini vortexter followed by sonication (Branson 1510) for 1 minutes. Vials were placed into a constant temperature bath (i.e., about 25° C.) and allowed to equilibrate for no less than 12 hours. The resulting suspensions were transferred to eppendorf tubes each equipped with a 0.2 μm nylon filter (Costar 8168) and were centrifuged for 10 minutes at 14,000 rpms. The supernatant from each eppendorf tube was collected and diluted with HPLC grade acetonitrile or methonal with appropriate dilution factor. Each solution was analyzed by an HPLC method.
As an example, the following HPLC assay was used to determine the aqueous solubility of 1-[3-(4-bromo-2-methyl-2H-pyrazol-3-yl)-4-methoxy-phenyl]-3-(2,4-difluoro-phenyl)-urea:
HPLC System: Waters 2795; Stationary phase: Xterra® column, MS C18, 3.5 μm, 4.6×50 mm; Mobile phase: Line A: 100% De-ionized-Millipore water; Line B: 1.0% NH4OH; Line C: 100% HPLC grade Acetonitrile; Gradient: A: 80% to 0% in 8 minute; B: 10% constant in 8 minute; C: 10% to 90% in 8 minute; Flow rate: 1.50 mL/min; Column temperature: 40° C.±5° C.; Sample temperature: 25° C.±5° C.
Photodiode Array Detector: Waters 2996 with UV lamp: 3D data collection; Start wavelength: 210 nm; end wavelength: 320 nm.
Processing wavelength: 220 nm.
Quantification was effected by comparison of the HPLC peak area for each test solution with the peak area taken from a standard plot of concentration versus peak area for standards of known concentration. As is conventional, the standard concentrations for 1-[3-(4-bromo-2-methyl-2H-pyrazol-3-yl)-4-methoxy-phenyl]-3-(2,4-difluoro-phenyl)-urea were selected to fall within a linear range of concentration versus absorbance for the UV detector employed. The standard concentration for 1-[3-(4-bromo-2-methyl-2H-pyrazol-3-yl)-4-methoxy-phenyl]-3-(2,4-difluoro-phenyl)-urea was diluted in serial fashion to obtain a calibration curve. Dilution was effected by adding the acetonitrile from mobile phase. Each saturated equilibrium solution for 1-[3-(4-bromo-2-methyl-2H-pyrazol-3-yl)-4-methoxy-phenyl]-3-(2,4-difluoro-phenyl)-urea obtained after filtering the test vial solutions was diluted with acetonitrile or methonal with appropriate dilution factor to reach the linear range of the standard plot.

diabetic rats = details: cited from earlier work
5-HT2A = 5-HT2A (Homo sapiens, UniProt P28223); details: cited from earlier work
Sequence of 5-HT2A (P28223 whole entry): as above

JC virus = details: cited from earlier work
[4] = patients, 24 months of treatment; cited from earlier work
[5] = glaucoma patients; cited from earlier work

AUC(0-inf) ([1]; single oral dose 10 mg): 51 ng·h/mL | Cmax ([1]; single oral dose 10 mg): 18 ng/mL | Tmax ([1]; single oral dose 10 mg): 1.2 h | AUC(0-inf) ([1]; single oral dose 20 mg): 181 ng·h/mL | Cmax ([1]; single oral dose 20 mg): 58 ng/mL | Tmax ([1]; single oral dose 20 mg): 1.2 h | AUC(0-inf) ([1]; single oral dose 40 mg): 395 ng·h/mL | Cmax ([1]; single oral dose 40 mg): 113 ng/mL | Tmax ([1]; single oral dose 40 mg): 1.5 h | AUC(0-inf) ([1]; single oral dose 80 mg): 612 ng·h/mL | Cmax ([1]; single oral dose 80 mg): 118 ng/mL | Tmax ([1]; single oral dose 80 mg): 1.2 h | AUC(0-inf) ([1]; single oral dose 160 mg): 739 ng·h/mL | Cmax ([1]; single oral dose 160 mg): 125 ng/mL | Tmax ([1]; single oral dose 160 mg): 1.5 h | solubility ([3]; 0.01 N HCl, 25 °C, pH 2, simulated gastric fluid, 0.01 N HCl (about pH 2), read-out: aqueous solubility): ≤ 0.01 mg/mL | solubility ([3]; 0.01 N HCl, 25 °C, pH 2, simulated gastric fluid, at 25° C. in 0.01 N HCl (pH 2), read-out: Solubility): < 0.01 mg/mL | solubility ([3]; 25 mM phosphate buffer, 25 °C, pH 7, aqueous buffer, at 25° C. in 25 mM Phosphate buffer (pH 7), read-out: Solubility): < 0.01 mg/mL | solubility ([3]; 0.05% Tween 80 & 0.5% Methocel, 25 °C, aqueous with cosolvent or surfactant or cyclodextrin, at 25° C. in 0.05% Tween 80 & 0.5% Methocel, read-out: Solubility): < 0.01 mg/mL | solubility ([3]; 1% Tween 80, 25 °C, aqueous with cosolvent or surfactant or cyclodextrin, at 25° C. in 1% Tween 80, read-out: Solubility): 0.4 mg/mL (≈ 0.915 mM) | solubility ([3]; 5% Gum Arabic, 25 °C, aqueous with cosolvent or surfactant or cyclodextrin, at 25° C. in 5% Gum Arabic, read-out: Solubility): < 0.01 mg/mL | solubility ([3]; 50% Captisol, 25 °C, aqueous with cosolvent or surfactant or cyclodextrin, at 25° C. in 50% Captisol, read-out: Solubility): 0.4 mg/mL (≈ 0.915 mM) | solubility ([3]; Cremophor RH 40, 25 °C, organic solvent or mixture, at 25° C. in Cremophor RH 40, read-out: Solubility): 196 mg/mL (≈ 448 mM) | solubility ([3]; Labrafil M 1944 CS, 25 °C, oil or lipid, at 25° C. in Labrafil M 1944 CS, read-out: Solubility): 29.9 mg/mL (≈ 68.4 mM) | solubility ([3]; Labrafil M 2125 CS, 25 °C, oil or lipid, at 25° C. in Labrafil M 2125 CS, read-out: Solubility): 32.7 mg/mL (≈ 74.8 mM) | solubility ([3]; Labrasol, 25 °C, oil or lipid, at 25° C. in Labrasol, read-out: Solubility): 348 mg/mL (≈ 796 mM) | solubility ([3]; PEG 300, 25 °C, organic solvent or mixture, at 25° C. in PEG 300, no suspension observed, read-out: Solubility): > 150 mg/mL | solubility ([3]; PEG 400, 25 °C, organic solvent or mixture, at 25° C. in PEG 400, read-out: Solubility): 377 mg/mL (≈ 861 mM) | solubility ([3]; PEG 600, 25 °C, organic solvent or mixture, at 25° C. in PEG 600, no suspension observed, read-out: Solubility): > 325 mg/mL | solubility ([3]; Softigen 767, 25 °C, oil or lipid, at 25° C. in Softigen 767, no suspension observed, read-out: Solubility): > 200 mg/mL | solubility ([3]; Transcutol P, 25 °C, organic solvent or mixture, at 25° C. in Transcutol P, no suspension observed, read-out: Solubility): > 200 mg/mL | solubility ([3]; Tween 20, 25 °C, organic solvent or mixture, at 25° C. in Tween 20, no suspension observed, read-out: Solubility): > 160 mg/mL | solubility ([3]; Tween 80, 25 °C, organic solvent or mixture, at 25° C. in Tween 80, read-out: Solubility): 320 mg/mL (≈ 732 mM) | solubility ([3]; deionized water, 25 °C, water, at 25° C. in Deionized water, read-out: Solubility): < 0.01 mg/mL | solubility ([3]; deionized water, 25 °C, water, deionized water, read-out: aqueous solubility): ≤ 0.01 mg/mL | solubility ([3]; phosphate buffer, 25 °C, pH 7, aqueous buffer, phosphate buffer (about pH 7), read-out: aqueous solubility): ≤ 0.01 mg/mL | solubility ([3]; saline (0.9% NaCl solution), 25 °C, saline or isotonic, at 25° C. in Saline (0.9% NaCl solution), read-out: Solubility): < 0.01 mg/mL | solubility ([3]; saline (about 0.9% NaCl solution), 25 °C, saline or isotonic, saline (about 0.9% NaCl solution), read-out: aqueous solubility): ≤ 0.01 mg/mL
SMILES: COc1ccc(NC(=O)Nc2ccc(F)cc2F)cc1-c1c(Br)cnn1C [1-[3-(4-bromo-2-methyl-2H-pyrazol-3-yl)-4-methoxy-phenyl]-3-(2,4-difluoro-phenyl)-urea]
effectiveness as a modulator of the 5-HT2A serotonin receptor [2]: especially effective as a modulator of the 5-HT2A serotonin receptor

SMILES: O=CN1CCC(C(=O)NCCN2CCC(=C3c4ccccc4C=Cc4ccccc43)CC2)CC1 [AT-1015]
14.9% reduction in saphenous sensory conduction velocity (diabetic rats): completely reversed | 44.7% reduction in sciatic endoneurial blood flow (diabetic rats): completely reversed

SMILES: O=C(c1ccc(F)cc1)C1CCN(CCn2c(=O)[nH]c3ccccc3c2=O)CC1 [ketanserin]
inverse agonist activity at 5-HT2A (5-HT2A): have inverse agonist activity | JC virus infection of human glial cells (JC virus): inhibited JC virus infection

SMILES: Cc1nc2sccn2c(=O)c1CCN1CCC(=C(c2ccc(F)cc2)c2ccc(F)cc2)CC1 [ritanserin]
inverse agonist activity at 5-HT2A (5-HT2A): have inverse agonist activity | 14.9% reduction in saphenous sensory conduction velocity (diabetic rats): completely reversed | 44.7% reduction in sciatic endoneurial blood flow (diabetic rats): completely reversed | JC virus infection of human glial cells (JC virus): inhibited JC virus infection

SMILES: COc1cccc(CCc2ccccc2OCC(CN(C)C)OC(=O)CCC(=O)O)c1 (stereo not drawn) [sarpogrelate]
urinary albumin excretion level [4]: significantly reduced | 14.9% reduction in saphenous sensory conduction velocity (diabetic rats): completely reversed | 44.7% reduction in sciatic endoneurial blood flow (diabetic rats): completely reversed | IOP [5]: significantly lower IOP
